Data on 24 compounds can be found in patent US8829203B2, “3′,6-substituted indirubins and their biological applications” (Centre National de la Recherche Scientifique (CNRS), priority 2008, dated 2014).

Structures can show the parent of a compound that is named as a salt.

For series [1], the system named is GSK-3-phosphorylated β-catenin. Nature of the series: β-catenin phosphorylation at GSK-3 sites in SH-SY5Y cells (Western blot / ELISA). Particulars: 6 hours, 10 μM or range of concentrations, with 2 μM MG132. The format is cell-based, human. On the procedure:
2a. […] The level of GSK-3-phosphorylated β-catenin was estimated by Western blotting following SDS-PAGE, using an antibody that specifically cross-reacts with GSK-3 phosphorylated β-catenin. […] 2b. Dose-response curves for a selection of indirubins were run in an ELISA assay using the same antibodies directed against GSK-3 phosphorylated β-catenin. SH-SY5Y cells were exposed for 6 hours to a range of concentrations of each indirubin, in the presence of MG132, and extracts were assessed in the ELISA assay. Activity was expressed as percentage of phosphorylated β-catenin in untreated control cells.
Nearly confluent SH-SY5Y human neuroblastoma cells were grown in 96 plates in DMEM (supplemented with 10% FCS and antibiotics). Cells were co-treated with tested compounds and 2 μM MG132 (to allow accumulation of phosphorylated β-catenin) for 6 hours. […] Cells were then subjected to an ELISA assay using antibodies directed against Ser33/Ser37/Thr41-phosphorylated (1:1000) p-catenin obtained from Cell Signaling Technology. Results are expressed in percentage of maximal β-Catenin phosphorylation, i.e. in untreated cells exposed to MG132 only as positive control (100% phosphorylation).
Cells were resuspended, lysed for 30 min at 4° C. in Homogenization Buffer and sonicated. After centrifugation (14000 r.p.m. for 15 min at 4° C.), the protein concentration was determined in the supernatants by the Bradford protein assay (Bio-Rad). Following heat denaturation for 5 min, proteins were separated by 10% NuPAGE pre-cast Bis-Tris Acetate polyacrylamide mini gel (Invitrogen) with MOPS SDS running buffer. Proteins were transferred to 0.45 μm nitrocellulose filters (Schleicher and Schuell). These were blocked with 5% low fat milk in Tris-Buffered Saline—Tween-20, incubated overnight at 4° C. with antibodies directed against Ser33/Ser37/Thr41-phosphorylated β-catenin (1:1000) (Cell Signaling Technology) and analyzed by Enhanced Chemiluminescence (ECL, Amersham).
Cells were exposed to various concentrations […] of each indirubin in the presence of a constant level of MG132 (an inhibitor of the proteasome which prevented the rapid degradation of β-catenin once phosphorylated by GSK-3). The level of GSK-3-phosphorylated was estimated either by Western blotting (with an antibody that specifically cross-reacts with β-catenin when phosphorylated at a GSK-3 site) following SDS-PAGE (FIG. 2a) or by an ELISA assay (FIG. 2b). […] Dose-response curves were obtained with ELISA assay (FIG. 2b).

The target of the next series is GSK-3α/β. Briefly: GSK-3α/β kinase assay (GS-1 substrate, 15 μM ATP). The format is biochemical, porcine. Particulars: 30° C., 30 min, read-out: GSK3 IC50. On the procedure:
(§1) Blank values were subtracted and activities calculated as pmoles of phosphate incorporated during a […] incubation. The activities were expressed in % of the maximal activity, i.e. in the absence of inhibitors. Controls were performed with appropriate dilutions of dimethylsulfoxide. Phosphorylation of the substrate was assessed by the P81 phosphocellulose assay.
GSK-3α/β was purified from porcine brain by affinity chromatography on immobilized axin^5. […] ATP (3,000 Ci/mmol; 10 mCi/ml) in a final volume of 30 μl. After 30 min. incubation at 30° C., 25 μl aliquots of supernatant were processed as described above.

The target in a further series is CDK1/cyclin B. Briefly: CDK1/cyclin B kinase assay (histone H1, 15 μM ATP). The format is biochemical, starfish (Marthasterias glacialis). The settings on record: 30° C., 30 min.
In the next series the target is CDK5/p25 (Homo sapiens, UniProt Q00535). Nature of the series: CDK5/p25 kinase assay (histone H1, 15 μM ATP). Particulars: 30° C., 30 min. The format is biochemical. On the procedure:
as §1
CDK5/p25 was reconstituted by mixing equal amounts of recombinant human CDK5 and p25 expressed in E. coli as GST (Glutathione-S-transferase) fusion proteins and purified by affinity chromatography on glutathione-agarose (p25 is a truncated version of p35, the 35 kDa CDK5 activator). Its activity was assayed with histone H1 in buffer C as described for CDK1/cyclin B.

Chain of CDK5/p25 (Q00535 whole entry): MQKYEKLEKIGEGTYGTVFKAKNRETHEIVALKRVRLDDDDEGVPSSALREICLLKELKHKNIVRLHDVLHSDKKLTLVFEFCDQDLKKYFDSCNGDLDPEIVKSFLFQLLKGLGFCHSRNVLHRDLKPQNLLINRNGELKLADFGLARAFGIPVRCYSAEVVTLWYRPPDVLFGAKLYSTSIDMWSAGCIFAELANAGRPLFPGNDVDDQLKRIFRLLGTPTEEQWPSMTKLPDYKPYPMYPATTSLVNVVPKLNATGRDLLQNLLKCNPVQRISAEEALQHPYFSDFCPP
Chain of CDK5/p25 (Q15078 99-307 partner limits assumed): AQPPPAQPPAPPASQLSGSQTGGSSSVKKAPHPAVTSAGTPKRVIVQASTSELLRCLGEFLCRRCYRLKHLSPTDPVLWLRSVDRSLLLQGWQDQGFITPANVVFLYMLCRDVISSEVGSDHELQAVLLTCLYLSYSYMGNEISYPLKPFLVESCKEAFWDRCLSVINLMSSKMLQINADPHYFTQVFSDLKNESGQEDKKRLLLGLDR

Regarding `CN1C(=O)C(=C2Nc3ccccc3C2=NO)c2ccc(Br)cc21` [1-methyl-6BIO, reference compound], the “Inhibition of β-catenin phosphorylation at GSK-3 sites” value (from here on “Inhibition”) in series [1] is given as “ineffective”.

`O=C1Nc2cc(Br)ccc2/C1=C1/Nc2ccccc2/C1=N\OCCBr` [Cpd 1, (2′Z-3′E)-6-Bromoindirubin-3-[O-(2-bromoethyl)-oxime]] came in with a melting point of 252 °C. The IC50 on GSK-3α/β stood at 140 nM. This compound came in with a half-inhibitory concentration (IC50) on CDK1/cyclin B of more than 10000 nM.

Take `O=C1Nc2cc(Br)ccc2/C1=C1/Nc2ccccc2/C1=N\OCCO` [Cpd 2, (2′Z-3′E)-6-Bromoindirubin-3′-[O-(2-hydroxyethyl)-oxime]]: the half-maximal inhibitory concentration (IC50) on CDK5/p25 amounted to 5000 nM; at GSK-3α/β it was 1700 nM; at CDK1/cyclin B it was 1700 nM.

`O=C1Nc2cc(Br)ccc2/C1=C1/Nc2ccccc2/C1=N\OCC(O)CO` (stereo not shown) [Cpd 3, (2′Z-3′E)-6-Bromoindirubin-3′-[O-(2,3-dihydroxypropyl)-oxime]] registered a melting point of more than 300 °C. The “Inhibition” value in series [1] is “most efficient”. For the same compound, half-maximal inhibition against CDK5/p25 (IC50) was put at 25 nM. Also, the IC50 on GSK-3α/β came to 34 nM. Also, the IC50 on CDK1/cyclin B worked out at 110 nM.

Consider `CCN(CC)C(=O)O/N=C1/C(=C2/C(=O)Nc3cc(Br)ccc32)Nc2ccccc21` [Cpd 4, (2′Z-3′E)-6-Bromoindirubin-3′-[O-(N,N-diethylcarbamyl)-oxime]], for which the melting point worked out at 237 °C. In addition, at GSK-3α/β, the half-inhibitory concentration (IC50) turned out to be 30 nM. Besides, on CDK1/cyclin B, the concentration for half-maximal inhibition (IC50) was more than 10000 nM.

In the case of `CN(C)CCO/N=C1/C(=C2/C(=O)Nc3cc(Br)ccc32)Nc2ccccc21` [Cpd 5, (2′Z-3′E)-6-Bromoindirubin-3′-[O-(2-dimethylaminoethyl)-oxime]], the “Inhibition” value in series [1] is listed as “most efficient”.

Consider `CCN(CC)CCO/N=C1/C(=C2/C(=O)Nc3cc(Br)ccc32)Nc2ccccc21` [Cpd 6, (2′Z-3′E)-6-Bromoindirubin-3′-[O-(2-diethylaminoethyl)-oxime]], for which the IC50 against CDK5/p25 is 20 nM; on GSK-3α/β, 35 nM; on CDK1/cyclin B, 90 nM.

For the compound `O=C1Nc2cc(Br)ccc2/C1=C1/Nc2ccccc2/C1=N\OCCN1CCCC1` [Cpd 7, (2′Z-3′E)-6-Bromoindirubin-3′-[O-(2-pyrrolidin-1-ylethyl)oxime]], the values for the IC50 against CDK5/p25, on GSK-3α/β and on CDK1/cyclin B were 130 nM, 26 nM and 500 nM, respectively.

With `O=C1Nc2cc(Br)ccc2/C1=C1/Nc2ccccc2/C1=N\OCCN1CCOCC1` [Cpd 8, (2′Z-3′E)-6-Bromoindirubin-3′-[O-(2-morpholin-1-ylethyl)oxime]], the melting point stood at 235 °C.

Regarding `O=C1Nc2cc(Br)ccc2/C1=C1/Nc2ccccc2/C1=N\OCCN(CCO)CCO` [Cpd 9], the melting point was determined as 201 °C. Further, the “Inhibition” value in series [1] was “most efficient”.

On to `CN(CCO/N=C1/C(=C2/C(=O)Nc3cc(Br)ccc32)Nc2ccccc21)CC(O)CO` (stereo not shown) [Cpd 10, (2′Z-3′E)-6-Bromoindirubin-3′-(O-{2-[-methyl, N-(2,3-dihydroxypropyl)amino]ethyl}oxime]], for which the melting point was 195 °C. The half-inhibitory concentration (IC50) against CDK5/p25 was 240 nM. Also, the IC50 on GSK-3α/β is 67 nM. The same compound returned a 50% inhibitory concentration (IC50) at CDK1/cyclin B of 240 nM.

As for `O=C1Nc2cc(Br)ccc2/C1=C1/Nc2ccccc2/C1=N\OCCN1CCNCC1` [Cpd 11, (2′Z-3′E)-6-Bromoindirubin-3′-[O-(2-piperazine-1-ylethyl)oxime]], in series [1], the “Inhibition” value is given as “most efficient”.

Take `CN1CCN(CCO/N=C2/C(=C3/C(=O)Nc4cc(Br)ccc43)Nc3ccccc32)CC1` [Cpd 12, (2′Z-3′E)-6-Bromoindirubin-3′-{O-[2-(4-methyl-piperazin-1-yl)ethyl]oxime}]: in series [1], the “Inhibition” value was “most efficient”. In addition, the IC50 at CDK5/p25 is 400 nM; on GSK-3α/β it was 7 nM; at CDK1/cyclin B, 400 nM.

For the compound `O=C1Nc2cc(Br)ccc2/C1=C1/Nc2ccccc2/C1=N\OCCN1CCN(CCO)CC1` [Cpd 13], the “Inhibition” value in series [1] is reported as “most efficient”.

Take `COCCN1CCN(CCO/N=C2/C(=C3/C(=O)Nc4cc(Br)ccc43)Nc3ccccc32)CC1` [Cpd 14]: the IC50 at CDK5/p25 is 500 nM; on GSK-3α/β, 11 nM; on CDK1/cyclin B, 2800 nM.

Take `CN(C)CCO/N=C1/C(=C2/C(=O)Nc3cc(Br)ccc32)Nc2ccccc21` [Cpd 16, (2′Z-3′)-6-Bromoindirubin-3′-[O-(2-dimethylaminoethyl)oxime]Hydrochloride]: the “Inhibition” value in series [1] was “most efficient”.

On to `CCN(CC)CCO/N=C1/C(=C2/C(=O)Nc3cc(Br)ccc32)Nc2ccccc21` [Cpd 17, (2′Z-3′E)-6-Bromoindirubin-3′-[O-(2-diethylaminoethyl)oxime]Hydrochloride], for which the results for the half-inhibitory concentration (IC50) against CDK5/p25, on GSK-3α/β and on CDK1/cyclin B were 40 nM, 27 nM and 190 nM, respectively.

For the compound `O=C1Nc2cc(Br)ccc2/C1=C1/Nc2ccccc2/C1=N\OCCN1CCCC1` [Cpd 18, (2′Z-3′)-6-Bromoindirubin-3′-[O-(2-pyrrolidin-1-ylethyl)oxime]Hydrochloride], the IC50 came to 100 nM against CDK5/p25, 54 nM on GSK-3α/β and 450 nM against CDK1/cyclin B.

Regarding `CN(CCON=C1C(=C2C(=O)Nc3cc(Br)ccc32)Nc2ccccc21)CC(O)CO` (stereo not shown) [Cpd 21], the concentration for half-maximal inhibition (IC50) against CDK5/p25 amounted to 100 nM; at GSK-3α/β it was 23 nM; on CDK1/cyclin B, 150 nM.

As for `O=C1Nc2cc(Br)ccc2/C1=C1/Nc2ccccc2/C1=N\OCCN1CCNCC1` [Cpd 22, (2′Z-3′E)-6-Bromoindirubin-3′-[O-(2-piperazine-1-ylethyl)oxime]Dihydrochloride], the “Inhibition” value in series [1] is “most efficient”. The compound further showed an IC50 against CDK5/p25 of 180 nM.

As to `CN1CCN(CCO/N=C2/C(=C3/C(=O)Nc4cc(Br)ccc43)Nc3ccccc32)CC1` [Cpd 23, (2′Z-3′E)-6-Bromoindirubin-3′-{O-[2-(4-methylpiperazin-1-yl)ethyl]oxime}Dihydrochloride], the “Inhibition” value in series [1] is listed as “most efficient”. The IC50 at CDK5/p25 came to 300 nM; on GSK-3α/β it was 5 nM; on CDK1/cyclin B, 300 nM.

Turning to `O=C1Nc2cc(Br)ccc2/C1=C1/Nc2ccccc2/C1=N\OCCN1CCN(CCO)CC1` [Cpd 24], the “Inhibition” value in series [1] was “most efficient”.

With `COCCN1CCN(CCO/N=C2/C(=C3/C(=O)Nc4cc(Br)ccc43)Nc3ccccc32)CC1` [Cpd 25], the figures for the half-inhibitory concentration (IC50) on CDK5/p25, at GSK-3α/β and against CDK1/cyclin B were 400 nM, 20 nM and 1000 nM, respectively.

On to `O=C1Nc2cc(Br)ccc2/C1=C1/Nc2ccccc2/C1=N\OCCN1CCN(CCOCCO)CC1` [Cpd 26, (2′Z-3′E)-6-Bromoindirubin-3′-[O-(2-{4-[2-(2-hydroxyethoxy)-ethyl]piperazin-1-yl}ethyl)oxime]Dihydrochloride], for which the half-inhibitory concentration (IC50) was found to be 330 nM on CDK5/p25, 33 nM at GSK-3α/β and 500 nM against CDK1/cyclin B.
